# Results: patent US7087552B2, “Modification of floral scent in flowering plants” (Ball Horticultural Company, priority 1999, dated 2006)
# Experiments:
# Snapdragon Petals [1] = assay: Conversion of 14C-labelled floral scent precursor to 14C-methylbenzoate in situ by excised snapdragon petal lobes (headspace, scintillation counting); settings: for nanocuries of 14C-methylbenzoate from 14C-phenylalanine: 220 nCi applied
# Method: Ten lower lobes of snapdragon flowers (variety Maryland True Pink, PanAmerican Seed Company, West Chicago, Ill.) were excised from the rest of the flower. Two microliters of ^14C-benzoic acid (500 nanocuries, or nCi) were pipetted onto the cut edge of the lower lobes. At this time, the lobes were allowed to sit for 10 minutes to permit uptake of the radiolabeled benzoic acid. The lobes were placed cut edge down on wet filter paper and the headspace collected over the course of the next four hours. The columns which trapped the volatiles were changed at 30, 60, 120 and 240 minutes after the start of incubation and eluted with 3 mls of hexane. The eluate (1.5 mls) was then analyzed in a liquid scintillation counter for the presence and amount of ^14C-methylbenzoate. The identity of ^14C-methylbenzoate was verified by its retention time on a thin-layer chromatography plate. As can be observed below in Table 2a, emission of ^14C-methylbenzoate was first detected within one hour after the start of the incubation period. […] This increase was even more dramatic over the next 2 hours as the amount of methylbenzoate emissions increased over 5-fold (compared to the first 2-hour collections period).
# In additional experiments (see Table 2b below), an essentially identical radiolabeled experiment was performed in which ^14C-phenylalanine (220 nCi) was substituted for ^14C-benzoic acid as the radiolabeled floral scent precursor. As was observed previously with ^14C-benzoic acid, the ^14C-phenylalanine was rapidly converted to ^14C-methylbenzoate. Within just 30 minutes after the start of the incubation period, ^14C-methylbenzoate was detected. The amount of ^14C-methylbenzoate increased rapidly during the following three successive collection periods, respectively, (the rate increasing during each successive period).
# [2] = system: lisianthus inflorescence-bearing stems; settings: lisianthus (Eustoma), in vivo, 0.1 mg/ml
# Method: (§1) To determine whether other floral scent precursors were taken up through the cut end of stems, and whether these compounds were transported in flowers other than snapdragon, the following experiment was performed.
# [3] = system: snapdragon inflorescence-bearing stems; settings: in vivo, 0.1 mg/ml
# Method: as §1
# H. lineata moths = settings: in vivo; cited from earlier work
# [4] = system: intact root systems of soybean seedlings; settings: intact root systems exposed; cited from earlier work
# spotted cucumber beetle = settings: in vivo; cited from earlier work
# Snapdragon Petals [5] = assay: Conversion of 14C-labelled floral scent precursor to 14C-methylbenzoate in situ by excised snapdragon petal lobes (headspace, scintillation counting); settings: Time 240 min; 220 nCi applied
# Cut Snapdragon Flowers [6] = assay: Headspace GC-MS of floral scent emission from cut snapdragon flowers placed in treatment solutions; assay type: in vivo; settings: for Percentage amount of total floral scent emitted compared to the 24-hour period prior to harvest: 5% (w/v) sucrose and/or 0.1 mg/ml benzoic acid
# Method: Volatiles emitted from snapdragon flowers were determined by headspace analysis, as described previously (Raguso and […], 1995, Plant Systematics and Evolution 194:55-67). […] (light /dark) temperature cycle. Flowers attached to the plant were enclosed in a polyvinylacetate bag (Reynolds, Inc.) and purified air was pumped over the flower at a flow rate of 250 ml/minute. […] Ionization energy was set at 70 eV. Column temperature programming was: 50° C. for 1 minute, then heated to 240° C. at a rate of 10°/minute. The MS was scanned from 41 to 400 AMU (atomic mass units). Simultaneous collections of ambient volatiles were used as controls. Components were first identified through a computer database containing several thousand mass spectra and confirmed by comparison of retention times and mass spectra of authentic standards. Headspace collection of greenhouse-grown, inflorescence-bearing snapdragons (Maryland True Pink, PanAmerican Seed Company, West Chicago, Ill.) was carried out for 24 hours. The snapdragon inflorescence-bearing stems for this experiment were carefully chosen to have a similar number of same-aged flowers. […] The sucrose level chosen was based upon the conclusions reached by Ichimura and Hisamatsu (1999, Journal for the Japanese Society for Horticultural Science, 68:61-66) that 5% (w/v) sucrose was the optimum sucrose level for maximum vase life of cut snapdragon flowers.
# IS10a = settings: tobacco cells exposed to 200–400 mM; cited from earlier work
# [7] = system: hypocotyl cells in light-grown, intact Nicotiana plumbaginifolia seedlings; settings: 1 mM (approximately 0.125 mg/ml); cited from earlier work
# Potted Snapdragon Plant = assay: Spray application to an intact potted snapdragon plant, headspace floral scent emission
# Method: In this experiment, a flowering snapdragon plant was selected and the headspace collected for a single 24-hour period. After this time, the inflorescence-bearing stem was sprayed to the point of runoff with a solution of 1 mg/ml benzoic acid. […] The flowers were allowed to dry and the headspace collected for the next 24 hours. […] However, during this 24-hour period after spray application of benzoic acid, several interesting observations were made.
# Petunia Cuttings = assay: Headspace GC-MS of methylbenzoate emission from Mitchell petunia cuttings; assay type: in vivo; settings: 5% (w/v) sucrose with or without 0.1 mg/ml benzoic acid
# Method: The petunia variety called ‘Mitchell’ is an older, non-commercial (i.e., research use only) cultivar (generally available from academic research institutions) that was previously known to emit floral scent, especially during the evening hours. […] With this identification of floral scent in hand, the uptake experiments carried out in Example 2 on cut snapdragon stems were repeated with inflorescence-bearing Mitchell petunia cuttings.
# Headspace collection was performed on two intact flowers for a 24-hour period prior to harvest to measure the amount of methylbenzoate emitted. This methylbenzoate emission was measured by GC-MS and these values set at 100%. The two inflorescence-bearing stems were harvested and immediately were placed into a vessel containing 5% (w/v) sucrose or a vessel containing 5% (w/v) sucrose supplemented with 0.1 mg/ml benzoic acid. Headspace collection was carried out as described in Example 2 on the cuttings for five 24-hour periods after harvesting. During the fifth 24-hour period, the flowers on both cuttings eventually senesced and collapsed.
# Cut Snapdragon Flowers [8] = assay: Floral scent emission of cut snapdragon flowers after 48 hours at 4° C. in darkness; assay type: in vivo; settings: collected for 5 days at ambient temperature in the light after 48 hours at 4° C. in darkness; 5% (w/v) sucrose with or without 0.1 mg/ml benzoic acid
# Method: Inflorescence-bearing snapdragon stems were harvested and incubated in water for 48 hours at 4° C. in darkness (to simulate post-harvest conditions at a commercial grower's facility and during shipping). […] The floral scent emission from the flowers was then collected for 5 days, and the total emission compared between the various treatments.
# [9] = Post-Spray 24 hours, 1 mg/ml sprayed to runoff
compound,measurement,setting,value
^14C-benzoic acid,nanocuries of 14C-methylbenzoate from 14C-benzoic acid,"Snapdragon Petals [1]; Time 0 min, 500 nCi applied to ten lower lobes",0.030 nCi
same,nanocuries of 14C-methylbenzoate from 14C-benzoic acid,"Snapdragon Petals [1]; Time 30 min, 500 nCi applied",0.036 nCi
same,nanocuries of 14C-methylbenzoate from 14C-benzoic acid,"Snapdragon Petals [1]; Time 60 min, 500 nCi applied",0.354 nCi
same,nanocuries of 14C-methylbenzoate from 14C-benzoic acid,"Snapdragon Petals [1]; Time 120 min, 500 nCi applied",2.544 nCi
same,nanocuries of 14C-methylbenzoate from 14C-benzoic acid,"Snapdragon Petals [1]; Time 240 min, 500 nCi applied",13.226 nCi
O=C(O)c1ccccc1O [salicylic acid],time of exposure until leaf necrosis was observed,[2],> 5 days
same,time after exposure at which leaf necrosis was first noticeable,[3],≤ 2 days
COC(=O)c1ccccc1 [methylbenzoate],EAG response,H. lineata moths,especially strong
O=C(O)C=Cc1ccccc1 [cinnamic acid],electrolyte leakage,[4],rapid increase in electrolyte leakage
O=CC=Cc1ccccc1 [cinnamaldehyde],attraction of the beetle,spotted cucumber beetle,attracted
^14C-phenylalanine,nanocuries of 14C-methylbenzoate from 14C-phenylalanine,Snapdragon Petals [1]; Time 0 min,0.295 nCi
same,nanocuries of 14C-methylbenzoate from 14C-phenylalanine,Snapdragon Petals [1]; Time 30 min,0.983 nCi
same,nanocuries of 14C-methylbenzoate from 14C-phenylalanine,Snapdragon Petals [1]; Time 60 min,1.874 nCi
same,nanocuries of 14C-methylbenzoate from 14C-phenylalanine,Snapdragon Petals [1]; Time 120 min,5.635 nCi
same,nanocuries of 14C-methylbenzoate from 14C-phenylalanine,Snapdragon Petals [5],25.387 nCi
"O=C(O)c1ccccc1 [BA, benzoic acid]","Methylbenzoate emitted, percentage of amount emitted during the 24-hour period prior to harvest",Cut Snapdragon Flowers [6]; Day 1 after harvest,84%
same,"Myrcene emitted, percentage of amount emitted during the 24-hour period prior to harvest",Cut Snapdragon Flowers [6]; Day 1 after harvest,158%
same,"Ocimene emitted, percentage of amount emitted during the 24-hour period prior to harvest",Cut Snapdragon Flowers [6]; Day 1 after harvest,139%
same,Percentage amount of total floral scent emitted compared to the 24-hour period prior to harvest,Cut Snapdragon Flowers [6]; Day 1 after harvest,120^ %
same,"Methylbenzoate emitted, percentage of amount emitted during the 24-hour period prior to harvest",Cut Snapdragon Flowers [6]; Day 2 after harvest,91%
same,"Myrcene emitted, percentage of amount emitted during the 24-hour period prior to harvest",Cut Snapdragon Flowers [6]; Day 2 after harvest,142%
same,"Ocimene emitted, percentage of amount emitted during the 24-hour period prior to harvest",Cut Snapdragon Flowers [6]; Day 2 after harvest,122%
same,Percentage amount of total floral scent emitted compared to the 24-hour period prior to harvest,Cut Snapdragon Flowers [6]; Day 2 after harvest,114%
same,"Methylbenzoate emitted, percentage of amount emitted during the 24-hour period prior to harvest",Cut Snapdragon Flowers [6]; Day 3 after harvest,8%
same,"Myrcene emitted, percentage of amount emitted during the 24-hour period prior to harvest",Cut Snapdragon Flowers [6]; Day 3 after harvest,23%
same,"Ocimene emitted, percentage of amount emitted during the 24-hour period prior to harvest",Cut Snapdragon Flowers [6]; Day 3 after harvest,20%
same,Percentage amount of total floral scent emitted compared to the 24-hour period prior to harvest,Cut Snapdragon Flowers [6]; Day 3 after harvest,15%
same,"Methylbenzoate emitted, percentage of amount emitted during the 24-hour period prior to harvest",Cut Snapdragon Flowers [6]; Day 4 after harvest,4%
same,"Myrcene emitted, percentage of amount emitted during the 24-hour period prior to harvest",Cut Snapdragon Flowers [6]; Day 4 after harvest,26%
same,"Ocimene emitted, percentage of amount emitted during the 24-hour period prior to harvest",Cut Snapdragon Flowers [6]; Day 4 after harvest,18%
same,Percentage amount of total floral scent emitted compared to the 24-hour period prior to harvest,Cut Snapdragon Flowers [6]; Day 4 after harvest,16%
same,"Methylbenzoate emitted, percentage of amount emitted during the 24-hour period prior to harvest",Cut Snapdragon Flowers [6]; Day 5 after harvest,3%
same,"Myrcene emitted, percentage of amount emitted during the 24-hour period prior to harvest",Cut Snapdragon Flowers [6]; Day 5 after harvest,18%
same,"Ocimene emitted, percentage of amount emitted during the 24-hour period prior to harvest",Cut Snapdragon Flowers [6]; Day 5 after harvest,18%
same,Percentage amount of total floral scent emitted compared to the 24-hour period prior to harvest,Cut Snapdragon Flowers [6]; Day 5 after harvest,12%
same,transcription of IS10a,IS10a,induce the transcription
same,electrolyte leakage,[4],rapid increase in electrolyte leakage
same,membrane potential,[7],rapid and weak hyperpolarization
same,phytotoxicity,"Potted Snapdragon Plant; 1 mg/ml spray, after 24 hours",evidence of phytotoxicity
same,"Methylbenzoate emitted, percentage of amount emitted during the 24-hour period prior to spraying",Potted Snapdragon Plant; [9],152%
same,"Myrcene emitted, percentage of amount emitted during the 24-hour period prior to spraying",Potted Snapdragon Plant; [9],52%
same,"Ocimene emitted, percentage of amount emitted during the 24-hour period prior to spraying",Potted Snapdragon Plant; [9],58%
same,"Total floral scent emitted, percentage of amount emitted during the 24-hour period prior to spraying",Potted Snapdragon Plant; [9],98%
same,contribution of the two monoterpenes to the overall floral scent,Potted Snapdragon Plant; after spraying 1 mg/ml (57% prior to spraying),33%
OCC=Cc1ccccc1 [cinnamyl alcohol],attraction of the beetle,spotted cucumber beetle,attracted
"OC[C@H]1O[C@@](CO)(O[C@H]2O[C@H](CO)[C@@H](O)[C@H](O)[C@H]2O)[C@@H](O)[C@@H]1O [Sucrose, sucrose, reference compound]","Methylbenzoate emitted, percentage of amount emitted during the 24-hour period prior to harvest",Cut Snapdragon Flowers [6]; Day 1 after harvest,78%
same,"Myrcene emitted, percentage of amount emitted during the 24-hour period prior to harvest",Cut Snapdragon Flowers [6]; Day 1 after harvest,78%
same,"Ocimene emitted, percentage of amount emitted during the 24-hour period prior to harvest",Cut Snapdragon Flowers [6]; Day 1 after harvest,88%
same,Percentage amount of total floral scent emitted compared to the 24-hour period prior to harvest,Cut Snapdragon Flowers [6]; Day 1 after harvest,85^ %
same,"Methylbenzoate emitted, percentage of amount emitted during the 24-hour period prior to harvest",Cut Snapdragon Flowers [6]; Day 2 after harvest,30%
same,"Myrcene emitted, percentage of amount emitted during the 24-hour period prior to harvest",Cut Snapdragon Flowers [6]; Day 2 after harvest,55%
same,"Ocimene emitted, percentage of amount emitted during the 24-hour period prior to harvest",Cut Snapdragon Flowers [6]; Day 2 after harvest,58%
same,Percentage amount of total floral scent emitted compared to the 24-hour period prior to harvest,Cut Snapdragon Flowers [6]; Day 2 after harvest,48%
same,Percentage amount of methylbenzoate emitted compared to the 24-hour period prior to harvest,Petunia Cuttings; Day 1 after harvest,62^2%
same,Percentage amount of methylbenzoate emitted compared to the 24-hour period prior to harvest,Petunia Cuttings; Day 2 after harvest,76%
same,Percentage amount of methylbenzoate emitted compared to the 24-hour period prior to harvest,Petunia Cuttings; Day 3 after harvest,48%
same,Percentage amount of methylbenzoate emitted compared to the 24-hour period prior to harvest,Petunia Cuttings; Day 4 after harvest,33%
same,Percentage amount of methylbenzoate emitted compared to the 24-hour period prior to harvest,Petunia Cuttings; Day 5 after harvest (flowers senesced and collapsed),23%
same,Total Emission,Cut Snapdragon Flowers [8],30^1 Units of total floral scent
